Test results as given in US20170029366A1, “INHIBITORS OF HISTONE LYSINE SPECIFIC DEMETHYLASE (LSD1) AND HISTONE DEACETYLASES (HDACS)” (THE JOHNS HOPKINS UNIVERSITY, priority 2014, published 2017).
Where “and” joins values, the source holds several entries; their conditions need not be identical. Equal values may be shown once. Where a name gives a salt, the structure may show the parent alone.

Tests used:
[1] = molecular target: T1, GST-LSD1 (Homo sapiens, UniProt O60341); settings: for k(inact) / KI (inactivation): GST-LSD1, peroxidase-coupled assay; for k(inact)/Ki(inact): GST-LSD1 inactivation efficiency; for KI (inactivation): extrapolated to zero substrate; for LSD1 inhibitory potency (in words): structure-activity comment on Table 1
[2] = system: Immature primary cortical neurons; test: Oxidative toxicity (HCA) and neuron viability assay (MTT); assay type: cell-based, Sprague Dawley rats; settings: 10 M phenelzine compared with 0.5 μM bizine
[3] = system: H3K4Me2 in LNCaP cells; test: Western blot of histone H3 marks in LNCaP cells; assay type: cell-based; settings: 48 h, concentrations up to 40 M
[4] = molecular target: T1, GST-LSD1; test: biochemical
[5] = system: LNCaP cells; test: Drug combination experiments with bizine ([3H] thymidine, Combination Index); assay type: cell-based; settings: binary combination with bizine, 48 h, 3H-thymidine incorporation

| Compound | k(inact) [1] | k(inact)/Ki(inact) [1] | other results |
| --- | --- | --- | --- |
| Cl.Cl.NNCCOc1ccccc1 [Compound 10a, (2-Phenoxyethyl)hydrazine dihydrochloride] | 0.15 ± 0.010 min⁻¹ | 56.7 ± 13.2 M⁻¹ s⁻¹ |  |
| NNCCc1ccc(NC(=O)/C=C/c2ccccc2)cc1.O=S(=O)(O)O [Compound 13, (2E)-N-[4-(2-Hydrazinylethyl)phenyl]-3-phenylprop-2-enamide sulfate] | 0.17 ± 0.21 min⁻¹ | 28300 ± 11300 M⁻¹ s⁻¹ | LSD1 inhibitory potency (in words) [1]: reduced LSD1 inhibitory potency |
| COc1ccc(CCCC(=O)Nc2ccc(CCNN)cc2)cc1.O=S(=O)(O)O [Compound 12h, N-[4-(2-Hydrazinylethyl)phenyl]-4-(4-methoxyphenyl)butanamide sulfate] | 0.26 ± 0.042 min⁻¹ | 20000 ± 9500 M⁻¹ s⁻¹ | KI (inactivation) [1]: 207 ± 89 nM |
| NNCCc1ccc(NC(=O)CCCc2ccc([N+](=O)[O-])cc2)cc1.O=S(=O)(O)O [Compound 12i, N-[4-(2-Hydrazinylethyl)phenyl]-4-(4-nitrophenyl)butanamide sulfate] | 0.21 ± 0.024 min⁻¹ | 12300 ± 3670 M⁻¹ s⁻¹ |  |
| NNCCCc1ccc(OCc2ccccc2)cc1 [Compound 14, {3-[4-(Benxyloxy)phenyl]propyl}hydrazine] | 0.18 ± 0.038 min⁻¹ | 3330 ± 1830 M⁻¹ s⁻¹ | KI (inactivation) [1]: 900 ± 450 nM; LSD1 inhibitory potency (in words) [1]: reduced LSD1 inhibitory potency |
| CNNCCCc1ccc(OC)cc1 [Compound 9f, 1-[3-(4-Methoxyphenyl)propyl]-2-methylhydrazine dihydrochloride] |  |  | IC50 [4]: > 100000 nM |
| NNCCCN1CCOCC1 [Compound 11, 4-(3-Hydrazinylpropyl) morpholine, reference compound] |  |  | LSD1 inhibitory potency (in words) [1]: not compatible with LSD1 inhibition; IC50 [4]: > 100000 nM |
| Cl.Cl.NNCCCOc1ccccc1 [Compound 10b, (3-Phenoxypropyl)hydrazine dihydrochloride] | 0.22 ± 0.020 min⁻¹ | 300 ± 60 M⁻¹ s⁻¹ |  |
| NNCCc1ccc(NC(=O)CCc2c[nH]c3ccccc23)cc1.O=S(=O)(O)O [Compound 15a, N-[4-(2-Hydrazinylethyl)phenyl]-3-(1H-indol-3-yl)propanamide sulfate] | 0.21 ± 0.030 min⁻¹ | 16700 ± 6830 M⁻¹ s⁻¹ |  |
| Nc1ccccc1NC(=O)c1ccc(CNC(=O)OCc2cccnc2)cc1 [MS-275] |  |  | effect of combination with bizine on cell inhibition (in words) [5]: additive to synergistic effects |
| Cc1[nH]c2ccccc2c1CCNCc1ccc(/C=C/C(=O)NO)cc1 [LBH-589] |  |  | effect of combination with bizine on cell inhibition (in words) [5]: additive to synergistic effects |
| COc1ccc(CCCNN)cc1.Cl.Cl [Compound 9e, [3-(4-Methoxyphenyl)propyl]hydrazine dihydrochloride] | 0.15 ± 0.023 min⁻¹ | 317 ± 145 M⁻¹ s⁻¹ | LSD1 inhibitory potency (in words) [1]: made little difference |
| NNCCc1ccc(NC(=O)CCc2ccccc2)cc1.O=S(=O)(O)O [Compound 12c, N-[4-(2-Hydrazinylethyl)phenyl]-3-phenylpropanamide sulfate] | 0.24 ± 0.022 min⁻¹ | 15300 ± 3670 M⁻¹ s⁻¹ |  |
| CN(C)NCCc1ccccc1 [Compound 9b, 1,1-Dimethyl-2-(2-phenylethyl)hydrazine] |  |  | IC50 [4]: > 100000 nM |
| NNCCc1ccc(NC(=O)CCCc2ccc(Cl)cc2)cc1.O=S(=O)(O)O [Compound 12f, 4-(4-Chlorophenyl)-N-[4-(2-hydrazinylethyl)phenyl]butanamide sulfate] | 0.17 ± 0.018 min⁻¹ | 18300 ± 5830 M⁻¹ s⁻¹ |  |

Further lines, with some results ahead:

| k(inact) [1] | k(inact)/Ki(inact) [1] | Compound | other results |
| --- | --- | --- | --- |
| 0.22 ± 0.038 min⁻¹ | 14300 ± 6500 M⁻¹ s⁻¹ | NNCCc1ccc(NC(=O)CCCCc2ccccc2)cc1.O=C(O)C(=O)O [Compound 12e, N-[4-(2-Hydrazinylethyl)phenyl]-5-phenylpentanamide oxalate] |  |
| 0.20 ± 0.0087 min⁻¹ | 9000 ± 900 M⁻¹ s⁻¹ | Cl.Cl.NNCCc1ccc(NC(=O)Cc2ccccc2)cc1 [Compound 12b, N-[4-(2-Hydrazinylethyl)phenyl]-2-phenylacetamide dihydrochloride] |  |
| 0.35 min⁻¹ and 0.35 ± 0.056 min⁻¹ |  | NNCCc1ccccc1 [phenelzine, reference compound] | neuroprotection after HCA-treatment [2]: comparable; H3K4Me2 changes [3]: did not induce H3K4Me2 changes |
| 0.18 ± 0.034 min⁻¹ | 14700 ± 7670 M⁻¹ s⁻¹ | CS(=O)(=O)Oc1ccccc1CCC(=O)Nc1ccc(CCNN)cc1.O=C(O)C(=O)O [Compound 12j, 2-(3-{[4-(2-Hydrazinylethyl)phenyl]amino}-3-oxopropyl)phenyl methanesulfonate oxalate] | KI (inactivation) [1]: 204 ± 98 nM |
| 0.12 ± 0.01 min⁻¹ | 91.7 ± 14.5 M⁻¹ s⁻¹ | Cl.Cl.NNCCCCc1ccccc1 [Compound 9h, (4-Phenylbutyl)hydrazine dihydrochloride] |  |
| 0.22 ± 0.025 min⁻¹ | 2330 ± 733 M⁻¹ s⁻¹ | NNCCc1ccc(N(Cc2ccccc2)C(=O)CCCc2ccccc2)cc1.O=C(O)C(=O)O [Compound 12m, N-Benzyl-N-[4-(2-hydrazinylethyl)phenyl]-4-phenylbutanamide oxalate] |  |
| 0.19 ± 0.036 min⁻¹ | 11700 ± 5170 M⁻¹ s⁻¹ | Cl.Cl.NNCCc1ccc(NC(=O)c2ccccc2)cc1 [Compound 12a, N-[4-(2-Hydrazinylethyl)phenyl]benzamide dihydrochloride] |  |
| 0.17 ± 0.020 min⁻¹ | 12700 ± 4000 M⁻¹ s⁻¹ | CS(=O)(=O)Oc1cccc(CCC(=O)Nc2ccc(CCNN)cc2)c1.O=C(O)C(=O)O [Compound 12k, 3-(3-{[4-(2-Hydrazinylethyl)phenyl]amino}-3-oxopropyl)phenyl methanesulfonate oxalate] | KI (inactivation) [1]: 223 ± 64 nM |
| 0.32 ± 0.010 min⁻¹ |  | Cl.Cl.NNCCCc1ccccc1 [Compound 9c, (3-Phenylpropyl)hydrazine dihydrochloride] |  |
| 0.24 ± 0.033 min⁻¹ | 2000 ± 750 M⁻¹ s⁻¹ | CN(C(=O)CCCc1ccccc1)c1ccc(CCNN)cc1.O=C(O)C(=O)O [Compound 12l, N-[4-(2-Hydrazinylethyl)phenyl]-N-methyl-4-phenylbutanamide oxalate] |  |
